Tests used:
Progesterone Receptor = assay: Receptor bond: relative molar binding affinity to the progesterone receptor; conditions: Progesterone = 100%
Source text: (§1) The methods for the in-vitro tests and the in-vivo tests with the compounds according to the invention can be found in EP 0 411 733 A2 and DE 43 32 283 A1: […]

Glucocorticoid Receptor = assay: Receptor bond: relative molar binding affinity to the glucocorticoid receptor; conditions: Dexamethasone = 100%
pregnancy in rats = assay: Early abortive action in rats after subcutaneous administration from the 5th to 7th day of pregnancy; format: in vivo, rat; conditions: s.c., day 5-7 of pregnancy; for Complete Inhibition of Pregnancy (empty uteri) N#/N: nonpregnant females/paired females
Source text: as §1

[1] = cited from earlier work
tumor models = conditions: in vivo; cited from earlier work

| Molecule | Relative Molar Binding-affinity RBA (%) to the Progesterone Receptor (Progesterone Receptor) | Relative Molar Binding-affinity RBA (%) to the Glucocorticoid Receptor (Glucocorticoid Receptor) | Complete Inhibition of Pregnancy (empty uteri) (pregnancy in rats; 1 mg/animal/day) | Complete Inhibition of Pregnancy (empty uteri) N#/N (pregnancy in rats; 1 mg/animal/day) | Complete Inhibition of Pregnancy (empty uteri) (pregnancy in rats; 0.3 mg/animal/day) | Complete Inhibition of Pregnancy (empty uteri) N#/N (pregnancy in rats; 0.3 mg/animal/day) | further results |
| --- | --- | --- | --- | --- | --- | --- | --- |
| CCNC(=O)ON=Cc1ccc(C2CC3(C)C(CCC3(O)C(F)(F)C(F)(F)F)C3CCC4=CC(=O)CCC4=C23)cc1 (stereo not drawn) [Example 3, 4-[17β-Hydroxy-17α-(1,1,2,2,2-pentafluoroethyl)-3-oxoestra-4,9-dien-11β-yl]-benzaldehyd-1-one-(1E)-{O-(ethylamino)carbonyl-oxime] | 230% | 84% | 100 | 4/4 | – | – | – |
| CC(=O)ON=Cc1ccc(C2CC3(C)C(CCC3(O)C(F)(F)C(F)(F)F)C3CCC4=CC(=O)CCC4=C23)cc1 (stereo not drawn) [compound 5, 4-[17β-Hydroxy-17α-(1,1,2,2,2-pentafluoroethyl)-3-oxoestra-4,9-dien-11β-yl]benzaldehyde-1(E)-O-acetyloxime] | 0.5% | 10% | – | – | – | – | – |
| CC#C[C@]1(O)CC[C@H]2[C@@H]3CCC4=CC(=O)CCC4=C3[C@@H](c3ccc(N(C)C)cc3)C[C@@]21C [RU 486, 11β-(4-Dimethylaminophenyl)-17β-hydroxy-17α-propinyl-estra-4,9-dien-3-one, reference compound] | – | – | 20 | 1/5 | 0 | 0/5 | Complete Inhibition of Pregnancy (empty uteri) (pregnancy in rats; 3 mg/animal/day): 100; Complete Inhibition of Pregnancy (empty uteri) N#/N (pregnancy in rats; 3 mg/animal/day): 5/5 |
| CC12CC(c3ccc(C=NO)cc3)C3=C4CCC(=O)C=C4CCC3C1CCC2(O)C(F)(F)F (stereo not drawn) [Compound No. 2, 4-[17β-Hydroxy-17α-(1,1,1-trifluoromethyl)-3-oxoestra-4,9-dien-11β-yl]benzaldehyde-1(Z)-oxime] | 123% | 113% | – | – | – | – | – |
| CN(C)c1ccc([C@H]2C[C@]3(C)[C@@H](CC[C@]3(O)CCCO)[C@@H]3CCC4=CC(=O)CCC4=C32)cc1 [Onapristone, reference compound] | 22% | 39% | – | – | – | – | – |
| CC12CC(c3ccc(C=NO)cc3)C3=C4CCC(=O)C=C4CCC3C1CCC2(O)C(F)(F)C(F)(F)F (stereo not drawn) [Example 2, 4-[17β-Hydroxy-17α-(1,1,2,2,2-pentafluoroethyl)-3-oxoestra-4,9-dien-11β-yl]-benzaldehyde-(1E)-oxime] | 23% | 10% | 100 | 5/5 | – | – | – |
| 4-[17β-Hydroxy-17α-(1,1,1-trifluoroethyloxymethyl)-3-oxoestra-4,9-dien-11β-yl]-benzaldehyde-(1E)-oxime [Example 6] | – | – | 100 | 4/4 | 100 | 4/4 | Complete Inhibition of Pregnancy (empty uteri) (pregnancy in rats; 0.1 mg/animal/day): 0; Complete Inhibition of Pregnancy (empty uteri) N#/N (pregnancy in rats; 0.1 mg/animal/day): 0/4 |
| CCNC(=O)ON=Cc1ccc(C2CC3(C)C(CCC3(O)C(F)(F)F)C3CCC4=CC(=O)CCC4=C23)cc1 (stereo not drawn) [compound 3, 4-[17β-Hydroxy-17α-(1,1,1-trifluoromethyl)-3-oxoestra-4,9-dien-11β-yl]benzaldehyde-1(E)-[O-(ethylamino)carbonyl]oxime] | 98% | 187% | – | – | – | – | – |
| COC1(C(F)(F)C(F)(F)F)CCC2C3CCC4=CC(=O)CCC4=C3C(c3ccc(C=NO)cc3)CC21C (stereo not drawn) [Example 4, 4-[17β-Methoxy-17α-(1,1,2,2,2-pentafluoroethyl)-3-oxoestra-4,9-dien-11β-yl]-benzaldehyde-(1E)-oxime] | – | – | 50 | 2/4 | – | – | – |
| CC(=O)c1ccc([C@H]2C[C@@]3(C)[C@@H](CC[C@@]3(O)C(F)(F)C(F)(F)F)[C@@H]3CCC4=CC(=O)CCC4=C32)cc1 [ZK 230 211, 11β-(4-Acetylphenyl)-17β-hydroxy-17α-(1,1,2,2,2-pentafluoroethyl)-estra-4,9-dien-3-one, reference compound] | – | – | 75 | 3/4 | 0 | 0/6 | Complete Inhibition of Pregnancy (empty uteri) (pregnancy in rats; 3 mg/animal/day): 100; Complete Inhibition of Pregnancy (empty uteri) N#/N (pregnancy in rats; 3 mg/animal/day): 4/4; Receptor selectivity (in words) [1]: high receptor selectivity; Antiproliferative activity in the tumor models (in words) (tumor models): antiproliferative activity |
| CC12CC(c3ccc(C=NO)cc3)C3=C4CCC(=O)C=C4CCC3C1CCC2(O)C(F)(F)F (stereo not drawn) [Example 1, 4-[17β-Hydroxy-17α-(trifluoromethyl)-3-oxoestra-4,9-dien-11β-yl]benzaldehyde-(1E)-oxime] | 272% | 163% | 100 | 4/4 | 100 | 4/4 | Complete Inhibition of Pregnancy (empty uteri) (pregnancy in rats; 0.03 mg/animal/day): 0; Complete Inhibition of Pregnancy (empty uteri) N#/N (pregnancy in rats; 0.03 mg/animal/day): 0/6; Complete Inhibition of Pregnancy (empty uteri) (pregnancy in rats; 0.1 mg/animal/day): 75; Complete Inhibition of Pregnancy (empty uteri) N#/N (pregnancy in rats; 0.1 mg/animal/day): 1/4 |

From US6825182B2, “17α-fluoroalkyl-11β-benzaldoxime steroids, process for their production, pharmaceutical preparations that contain these steroids as well as their use for the production of pharmaceutical agents” (Schering AG, priority 2002, dated 2004)
